How the values were obtained:
OVA antigen = experiment: IgG titer with OVA antigen (indirect ELISA, immunized mice); assay type: in vivo, BALB/c mice
Description: (§1) Adjuvanticity of 15b was evaluated using antigens (OVA, HBsAg, DENV and JEV) in BALB/c mice model—From the immunized mice retro-orbital sampling or retro-orbital blood was collected on 14th and 28th day before sacrifice. Serum was separated by centrifugation at 12,500 rpm for 5 min. Transferred to a clean centrifuge tube and store at −80 until used.
(§2) The plates were coated with antigen in carbonate buffer. Plates were incubated at 4° C. overnight. They were then washed 3 times with PBS/Tween, and non-specific binding sites were blocked by adding 200 μl of blocking solution. Plates were incubated at room temperature for 1 h. Then 3 times wash is done, diluted standards and samples to desired concentrations in blocking solution were added to the plates. Incubate at 37° C. for 1 h or at 4° C. overnight. Plates were washed 3 times with PBS/Tween. Avidin-Horseradish Peroxidase (Av-HRP) was diluted and added. Incubated at room temperature for 30 min. Plates were washed 3 times with PBS/Tween. OPD Substrate was added and plates were incubated at room temperature (4-30 min) for colour development. The colour reaction was stopped by adding 50 μl of stop solution. Optical density (OD) was read at 492 nm.

CD4, CD8 [1] = experiment: Post JEV immunization Immunophenotyping; assay type: in vivo, BALB/c mice
Description: (§3) Staining for extracellular markers Staining was as per the manufacturer's protocol and run on a BD FACS Verse flow cytometer. Compensation was established using BD Biosciences compensation beads. Post-acquisition flow cytometry analysis was performed using FACS Suite software.

[2] = system: CD4, CD8, CD19, CD80, CD 28; experiment: Post Denv immunization Immunophenotyping; assay type: in vivo, BALB/c mice
Description: as §3

In vitro Hemolysis assay = conditions: for toxicity and hemolysis, conclusion in words: even at higher concentrations
splenocytes = experiment: Post JEV immunization In vivo splenocyte proliferation assay; parameters: species or system BALB/c mice
Description: Splenocytes were seeded into 96-well flat-bottom microtiter plates having 1×10^5 cells/well in […] complete RPMI-1640 medium. Plates were incubated at 37° C. with 5% CO2. After 48 h, […] MTT solution (5 mg/mL) was added to each well and left to incubate for next 4 h. Untransformed MTT ([…]) was removed from each well by pipetting. A total of […] of DMSO was added and the absorbance was evaluated in an ELISA reader at 630 nm on the multimode reader (Infinite 200 Pro, Switzerland) after 15 min

[3] = system: cytokines IL-1, IL-2, IL-4, IFN, IL-6, IL-10, IL-12, TNF; experiment: Post JEV immunization In vivo cytokine assay; parameters: species or system BALB/c mice
Description: (§4) ELISA was carried out by Bio Legend capture and detection antibodies. Briefly, 96-well plates were coated with capture antibody dissolved in coating buffer per well incubated overnight at 4° C. Wells were blocked with BSA for 1 h at RT. After blocking, 50 μL/well of serum was added and incubated for 3 h. After washing, Biotinylated secondary antibody was added along with enzyme. Plates were incubated for 1 h at RT. Then plates were washed and TMB substrate solution was added. The reaction was stopped after 30 min with a stopping solution. Absorbance was measured at 450 nm with a plate reader.

HBsAg antigen = experiment: IgG titer with HBsAg antigen; assay type: in vivo, BALB/c mice
Description: as §1, §2

[4] = system: cytokines IFN, IL-1, IL-4, IL-6, IL-10; experiment: Post HBsAg immunization In vivo cytokine assay; parameters: species or system BALB/c mice
Description: as §4

[5] = system: antigens (OVA, HBsAg, DENV and JEV); experiment: Serum anti-antigens (OVA, HBsAg, DENV and JEV) IgG titer, overall statements; assay type: in vivo, BALB/c mice; conditions: 15b against Ovalbumin, DEV, 15f against JEV
Description: as §1, §2

JEV antigen = experiment: IgG titer with JEV antigen; assay type: in vivo, BALB/c mice
Description: as §1, §2

CD4, CD8 [6] = experiment: Post HBsAg immunization Immunophenotyping; assay type: in vivo, BALB/c mice
Description: as §3

[7] = dose 10 μg, UT = 100 (Table 15)

For C[C@H](NC(=O)[C@@H](C)O[C@H]1[C@H](O)[C@@H](CO)OC(O)[C@@H]1NC(=O)C1CC1)C(=O)N[C@H](CCC(=O)O)C(N)=O (stereo partly drawn) [15b, (4R)-5-amino-4-((2S)-2-((2R)-2-(((3R,4R, 5S, 6R)-3-(cyclopropanecarboxamido)-2,5-dihydroxy-6-(hydroxymethyl)tetrahydro-2H-pyran-4-yl)oxy)propanamido)propanamido)-5-oxopentanoic acid], the “IgG titer with OVA antigen” value (OVA antigen; dose 1 μg) was 1600-124000, the “IgG titer with OVA antigen” value (OVA antigen; dose 10 μg) was 204800-416000 and the “IgG titer with OVA antigen” value (OVA antigen; dose 100 μg) was 115000-320000. The CD4 (CD4, CD8 [1]; dose 1 μG) was 39.75-42.58, the CD8 (CD4, CD8 [1]; dose 1 μG) was 14.56-19.54 and the CD4 (CD4, CD8 [1]; dose 10 μG) was 41.86-43.28. For the same molecule, the CD8 (CD4, CD8 [1]; dose 10 μG) was 14.78-17.25, the CD4 ([2]; dose 1 μG) was 36.26-41.8 and the CD8 ([2]; dose 1 μG) was 22.26-29.48. The CD19 ([2]; dose 1 μG) was 30.57-35.48, the “CD 28” value ([2]; dose 1 μG) was 3.65-7.48 and the CD80 ([2]; dose 1 μG) was 6.3-8.4. For the same molecule, the CD4 ([2]; dose 10 μG) was 38.74-43.84, the CD8 ([2]; dose 10 μG) was 22.92-27.84 and the CD19 ([2]; dose 10 μG) was 36.19-41.28. For the same molecule, the “CD 28” value ([2]; dose 10 μG) was 3.68-8.41, the CD80 ([2]; dose 10 μG) was 6.11-11.4 and the “% Hemolysis” value (In vitro Hemolysis assay; erythrocytes (red blood cells)) was 2.302 ± 0.147%. For the same molecule, the “toxicity and hemolysis, conclusion in words” value (In vitro Hemolysis assay) was “non-toxic and non-hemolytic”, the “Splenocyte proliferation, Con A” value (splenocytes; dose 1 μg, UT = 100 (Table 15)) was 117.5-119.48 and the “Splenocyte proliferation, LPS” value (splenocytes; dose 1 μg, UT = 100 (Table 15)) was 118.2-120.01. The “Splenocyte proliferation, Normal” value (splenocytes; dose 1 μg, UT = 100 (Table 15)) was 118.6-120.48, the “Splenocyte proliferation, Restimulated” value (splenocytes; dose 1 μg, UT = 100 (Table 15)) was 116.5-119.27 and the “Splenocyte proliferation, Con A” value (splenocytes; [7]) was 124.55-126.85. The “Splenocyte proliferation, LPS” value (splenocytes; [7]) was 104.6-109.57, the “Splenocyte proliferation, Normal” value (splenocytes; [7]) was 111.38-115.78 and the “Splenocyte proliferation, Restimulated” value (splenocytes; [7]) was 114.2-117.24. For the same molecule, the IFN ([3]; dose 1 μg (Table 14)) was 4.21 to 6.37 pg/mL, the IL-2 ([3]; dose 1 μg (Table 14)) was 13.77 to 19.81 pg/mL and the IL-6 ([3]; dose 1 μg (Table 14)) was 157.05 to 160.47 pg/mL. The IL-10 ([3]; dose 1 μg (Table 14)) was 48 to 51.02 pg/mL, the IFN ([3]; dose 10 μg (Table 14)) was 11.03 to 13.05 pg/mL and the IL-1 ([3]; dose 10 μg (Table 14)) was 61.9 to 67.25 pg/mL. It also gave an IL-2 ([3]; dose 10 μg (Table 14)) of 12.17 to 15.34 pg/mL, an IL-6 ([3]; dose 10 μg (Table 14)) of 233.3 to 245.27 pg/mL and an IL-10 ([3]; dose 10 μg (Table 14)) of 52.3 to 54.28 pg/mL. For the same molecule, the IFN ([3]; dose 100 μg (Table 14)) was 3.06 to 6.48 pg/mL, the IL-1 ([3]; dose 100 μg (Table 14)) was 70.1 to 73.48 pg/mL and the IL-2 ([3]; dose 100 μg (Table 14)) was 23.97 to 27.45 pg/mL. For the same molecule, the IL-6 ([3]; dose 100 μg (Table 14)) was 279.85 to 281.47 pg/mL, the IL-10 ([3]; dose 100 μg (Table 14)) was 57.5 to 59.48 pg/mL and the “IgG titer with HBsAg antigen” value (HBsAg antigen; dose 1 μg) was 51200-102400. The “IgG titer with HBsAg antigen” value (HBsAg antigen; dose 10 μg) was 102400-240000, the IFN ([4]; dose 1 μg) was 80.6 pg/mL and the IFN ([4]; dose 10 μg) was 75.07 pg/mL. For the same molecule, the IFN ([4]; dose 100 μg) was 68.6 pg/mL, the “antibody titer, conclusion in words” value [5] was “significant antibody titer” and the “IgG titer with JEV antigen” value (JEV antigen; dose 1 μg (Table 13)) was 64000-128000. For the same molecule, the “IgG titer with JEV antigen” value (JEV antigen; dose 10 μg (Table 13)) was 8000-16000, the “IgG titer with JEV antigen” value (JEV antigen; dose 100 μg (Table 13)) was 40000-80000 and the CD4 (CD4, CD8 [6]; dose 1 μG) was 24.48-29.48. For the same molecule, the CD8 (CD4, CD8 [6]; dose 1 μG) was 12.71-19.48, the CD4 (CD4, CD8 [6]; dose 10 μG) was 25.47-29.48 and the CD8 (CD4, CD8 [6]; dose 10 μG) was 12.67-18.54.

With CCCCCCCCCCCCCC(=O)OCCCCCCCC(=O)N[C@H]1C(O)O[C@H](CO)[C@@H](O)[C@@H]1O[C@H](C)C(=O)N[C@@H](C)C(=O)N[C@H](CCC(=O)O)C(N)=O (stereo partly drawn) [15f, (4R)-5-amino-4-((2S)-2-((2R)-2-(((3R,4R,5S,6R)-2,5-dihydroxy-6-(hydroxymethyl)-3-(8-(tetradecanoyloxy)octanamido)tetrahydro-2H-pyran-4-yl)oxy)propanamido)propanamido)-5-oxopentanoic acid] the “IgG titer with OVA antigen” value (OVA antigen; dose 1 μg) was 8000-25400, the “IgG titer with OVA antigen” value (OVA antigen; dose 10 μg) was 5000-41600 and the “IgG titer with OVA antigen” value (OVA antigen; dose 100 μg) was 200000-960000. The “toxicity and hemolysis, conclusion in words” value (In vitro Hemolysis assay) was “non-toxic and non-hemolytic”, the “Splenocyte proliferation, Con A” value (splenocytes; dose 5 μG (Table 25)) was 125-141 and the “Splenocyte proliferation, JEV” value (splenocytes; dose 5 μG (Table 25)) was 139-147. The “Splenocyte proliferation, LPS” value (splenocytes; dose 5 μG (Table 25)) was 124-134, the “Splenocyte proliferation, Con A” value (splenocytes; dose 20 μG (Table 25)) was 134-142 and the “Splenocyte proliferation, JEV” value (splenocytes; dose 20 μG (Table 25)) was 149-162. The “Splenocyte proliferation, LPS” value (splenocytes; dose 20 μG (Table 25)) was 128-137, the “Splenocyte proliferation, Con A” value (splenocytes; dose 50 μG (Table 25)) was 245-264 and the “Splenocyte proliferation, LPS” value (splenocytes; dose 50 μG (Table 25)) was 184-192. The TNF ([3]; dose 5 μG (Table 24)) was 624 to 654 pg/mL, the IL-1 ([3]; dose 5 μG (Tables 22, 24)) was 745 to 845 pg/mL and the IL-2 ([3]; dose 5 μG (Tables 22, 24)) was 41 to 52 pg/mL. It also gave an IL-4 ([3]; dose 5 μG (Tables 22, 24)) of 134 to 155 pg/mL, an IL-10 ([3]; dose 5 μG (Tables 22, 24)) of 243 to 294 pg/mL and an IL-12 ([3]; dose 5 μG (Tables 22, 24)) of 124 to 147 pg/mL. The TNF ([3]; dose 20 μG (Table 24)) was 898 to 942 pg/mL, the IL-1 ([3]; dose 20 μG (Tables 22, 24)) was 1059 to 1124 pg/mL and the IL-2 ([3]; dose 20 μG (Tables 22, 24)) was 52 to 64 pg/mL. The IL-4 ([3]; dose 20 μG (Tables 22, 24)) was 138 to 146 pg/mL, the IL-10 ([3]; dose 20 μG (Tables 22, 24)) was 398 to 421 pg/mL and the IL-12 ([3]; dose 20 μG (Tables 22, 24)) was 175 to 194 pg/mL. It also gave a TNF ([3]; dose 50 μG (Table 24)) of 1024 to 1124 pg/mL, an IL-1 ([3]; dose 50 μG (Tables 22, 24)) of 1487 to 1634 pg/mL and an IL-2 ([3]; dose 50 μG (Tables 22, 24)) of 69 to 76 pg/mL. The IL-4 ([3]; dose 50 μG (Tables 22, 24)) was 148 to 164 pg/mL, the IL-10 ([3]; dose 50 μG (Tables 22, 24)) was 424 to 487 pg/mL and the IL-12 ([3]; dose 50 μG (Tables 22, 24)) was 136 to 147 pg/mL. For the same molecule, the “antibody titer, conclusion in words” value [5] was “significant antibody titer”, the “IgG titer with JEV antigen” value (JEV antigen; dose 5 μG (Table 21)) was 80000-160000 and the “IgG titer with JEV antigen” value (JEV antigen; dose 20 μG (Table 21)) was 160000-640000. The “IgG titer with JEV antigen” value (JEV antigen; dose 50 μG (Table 21)) was 640000-9560000.

B1: OVA (protein, UniProt P01012 2-386, looked up)
Ovalbumin: GSIGAASMEFCFDVFKELKVHHANENIFYCPIAIMSALAMVYLGAKDSTRTQINKVVRFDKLPGFGDSIEAQCGTSVNVHSSLRDILNQITKPNDVYSFSLASRLYAEERYPILPEYLQCVKELYRGGLEPINFQTAADQARELINSWVESQTNGIIRNVLQPSSVDSQTAMVLVNAIVFKGLWEKAFKDEDTQAMPFRVTEQESKPVQMMYQIGLFRVASMASEKMKILELPFASGTMSMLVLLPDEVSGLEQLESIINFEKLTEWTSSNVMEERKIKVYLPRMKMEEKYNLTSVLMAMGITDVFSSSANLSGISSAESLKISQAVHAAHAEINEAGREVVGSAEAGVDAASVSEEFRADHPFLFCIKHIATNAVLFFGRCVSP
With B1 the “IgG titer with OVA antigen” value (OVA antigen; OVA 100 μg alone) was 6400-12800.

Reference: patent US20250170237A1, “MURAMYL DIPEPTIDES AND PROCESS FOR PREPARATION THEREOF” (priority 2022, published 2025)
